US9204640B2, “2-acyloxy-pyrrolin-4-ones” (BAYER INTELLECTUAL PROPERTY GMBH, priority 2011, dated 2015)

Assays:
Assay type in all cases: in vivo
Alopecurus myosuroides = assay: Herbicidal post-emergence action, ALOMY; details: Alopecurus myosuroides, post-emergence, 20 g/ha
Description: (§1) 2. Herbicidal Post-Emergence Action
(§2) • Seeds of monocotyledonous and dicotyledonous weed and crop plants are placed in sandy loam in wood-fiber pots, covered with soil and cultivated in a greenhouse under good growth conditions. 2 to 3 weeks after sowing, the test plants are treated at the one-leaf stage. The test compounds, formulated as wettable powders (WP), are then, with a water application rate of 600 l/ha (converted), with 0.2% of wetting agent added, sprayed at various dosages onto the green parts of the plants. After the test plants have been kept in the greenhouse under optimum growth conditions for about 3 weeks, the activity of the preparations is rated visually in comparison to untreated controls (herbicidal activity in percent: 100% activity=the plants have died, 0% activity=like control plants). • In addition to the compounds mentioned above, the following compounds show an activity of 90-100% against Alopecurus myosuroides, Avena fatua, Digitaria sanguinalis, Echinocloa crus-galli, Lolium multiflorum, Setaria viridis and Sorghum halapense when applied by the post-emergence method at 320 g/ha: I-a-2, I-a-4, I-a-5, I-a-7, I-a-9, I-a-10, I-a-11, I-a-12, I-a-13, I-a-15. • In addition to the compounds mentioned above, the following compounds show an activity of 90-100% against Alopecurus myosuroides, Avena fatua, Echinocloa crus-galli, Lolium multiflorum and Setaria viridis when applied by the post-emergence method at 80 g/ha: I-a-1, I-b-2.
(§3) • Seeds of monocotyledonous and dicotyledonous weed plants and crop plants are placed in wood-fiber pots in sandy loam and covered with soil. The test compounds, formulated in the form of wettable powders (WP) or emulsion concentrates (EC), are then, as an aqueous suspension with a water application rate of 600-800 l/ha (converted), with 0.1-0.2% of wetting agent added, applied at various dosages to the surface of the covering soil. • After the treatment, the pots are placed in a greenhouse and kept under good growth conditions for the test plants. […] Herbicidal Post-Emergence Action (Post) • Seeds of monocotyledonous and dicotyledonous weed and crop plants are placed in sandy loam in wood-fiber pots, covered with soil and cultivated in a greenhouse under good growth conditions. 2-3 weeks (stages 10-13 according to the BBCH scale) after sowing, the test plants are treated at a height of 5-10 cm. The test compounds, formulated as wettable powders (WP) or emulsion concentrates (EC), are then, with a water application rate of 600-800 l/ha (converted), with 0.1-0.2% of wetting agent added, sprayed at various dosages onto the green parts of the plants.
(§4) AVEFA: Avena fatua LOLMU: Lolium multiflorum SETVI: Setaria viridis CHEAL: Chenopodium album VIOTR: Viola tricolor VERPE: Veronica persica ORYSA: Oryza sativa TRZAS: Triticum aestivum ZEAMX: Zea mays ALOMY: Alopecurus myosuroides DIGSA: Digitaria sanguinalis ECHCG: Echinocloa crus-galli SORHA: Sorghum halepense AVESA: Avena sativa AMARE: Amaranthus retroflexus SINAL: Sinapis alba STEME: Stellaria media

Myzus persicae [1] = assay: Myzus persicae test (MYZUPE Tau), leaf dipping; details: Myzus persicae, foliar, 144 h, 6dat
Description: Myzus Persicae Test (MYZUPE Tau) To produce a suitable preparation of active compound, 1 part by weight of active compound is mixed with the stated amount of solvent and emulsifier, and the concentrate is diluted with emulsifier-containing water to the desired concentration. Cabbage leaves (Brassica oleracea) which are heavily infested by the green peach aphid (Myzus persicae) are treated by dipping into the active compound preparation of the desired concentration. After the desired period of time, the kill in % is determined. 100% means that all of the aphids have been killed; 0% means that none of the aphids have been killed.

Echinocloa crus-galli = assay: Herbicidal post-emergence action, ECHCG; details: Echinochloa crus-galli, post-emergence, 20 g/ha
Description: as §1, §2, §3, §4

Digitaria sanguinalis = assay: Herbicidal post-emergence action, DIGSA; details: Digitaria sanguinalis, post-emergence, 20 g/ha
Description: as §1, §2, §3, §4

Setaria viridis = assay: Herbicidal pre-emergence action, SETVI; details: Setaria viridis, pre-emergence, 20 g/ha
Description: 1. Herbicidal Pre-Emergence Action
• Seeds of monocotyledonous and dicotyledonous weed plants and crop plants are placed in wood-fiber pots in sandy loam and covered with soil. The test compounds, formulated in the form of wettable powders (WP), are then, as an aqueous suspension with a water application rate of 600 l/ha (converted), with 0.2% of wetting agent added, applied at various dosages to the surface of the covering soil. • After the treatment, the pots are placed in a greenhouse and kept under good growth conditions for the test plants. The visual assessment of the damage to the test plants is carried out after a trial period of about 3 weeks by comparison with untreated controls (herbicidal activity in percent: 100% activity=the plants have died, 0% activity=like control plants). • In addition to the compounds mentioned above, the following compounds show an activity of 90-100% against Alopecurus myosuroides, Digitaria sanguinalis, Echinocloa crus-galli, Lolium multiflorum, Setaria viridis and Sorghum halapense when applied by the pre-emergence method at 320 g/ha of a.i.: I-a-2, I-a-10, I-a-11, I-a-12.
1. Herbicidal Pre-Emergence Action (Pre)
as §3, §4

Myzus persicae [2] = assay: Myzus persicae test; hydroponic treatment (MYZUPE Sys); details: Myzus persicae, 144 h, 6dat
Description: Myzus Persicae Test; Hydroponic Treatment (MYZUPE Sys)
To produce a suitable preparation of active compound, 1 part by weight of active compound is mixed with the stated amounts of solvent and emulsifier, and the concentrate is diluted with water to the desired concentration.
The active compound preparation is mixed with water. The stated concentration refers to the amount of active compound per volume unit of water (mg/l=ppm). The treated water is filled into vessels containing a pea plant (Pisum sativum), and the plant is the infested with the green peach aphid (Myzus persicae).
After the desired period of time, the kill in % is determined 100% means that all of the aphids have been killed; 0% means that none of the aphids have been killed.

Phaedon cochleariae = assay: Phaedon test (PHAECO spray treatment); details: application rate 500 g/ha, after 7 days, Chinese cabbage leaf discs
Description: Phaedon Test ([…] Spray Treatment) [table] To produce a suitable preparation of active compound, 1 part by weight of active compound is mixed with the stated amount of solvent and emulsifier, and the concentrate is diluted with emulsifier-containing water to the desired concentration. Discs of Chinese cabbage (Brassica pekinensis) are sprayed with an active compound preparation of the desired concentration and, after drying, populated with larvae of the mustard beetle (Phaedon cochleariae). After 7 days, the effect in % is determined 100% means that all beetle larvae have been killed; 0% means that none of the beetle larvae have been killed. Phaedon Test ([…] Spray Treatment) To produce a suitable preparation of active compound, 1 part by weight of active compound is mixed with the stated amount of solvent and emulsifier, and the concentrate is diluted with emulsifier-containing water to the desired concentration. Discs of Chinese cabbage (Brassica pekinensis) are sprayed with an active compound preparation of the desired concentration and, after drying, populated with larvae of the mustard beetle (Phaedon cochleariae). After the desired period of time, the activity in % is determined. 100% means that all beetle larvae have been killed; 0% means that none of the beetle larvae have been killed.

Meloidogyne incognita = Meloidogyne incognita test (MELGIN); details: 20 ppm, after 14 days, lettuce roots
Description: Meloidogyne Incognita Test (MELGIN) [table] To prepare a suitable active compound preparation, 1 part by weight of active compound is mixed with the stated amounts of solvent and the concentrate is diluted with water to the desired concentration. Containers are filled with sand, solution of active compound, Meloidogyne incognita egg/larvae suspension and lettuce seeds. The lettuce seeds germinate and the plants develop. On the roots, galls are formed. After 14 days, the nematicidal effect in % is determined by the formation of galls. 100% means that no galls have been found; 0% means that the number of galls on the treated plants corresponds to the untreated control.

Myzus persicae [3] = assay: Myzus test (MYZUPE spray treatment); details: application rate 500 g/ha, after 5 days, Chinese cabbage leaf discs
Description: Myzus Test (MYZUPE Spray Treatment) [table] To produce a suitable preparation of active compound, 1 part by weight of active compound is mixed with the stated amount of solvent and emulsifier, and the concentrate is diluted with emulsifier-containing water to the desired concentration. Discs of Chinese cabbage (Brassica pekinensis) infected by all stages of the green peach aphid (Myzus persicae) are sprayed with an active compound preparation of the desired concentration. After 5 days, the effect in % is determined 100% means that all of the aphids have been killed; 0% means that none of the aphids have been killed. Myzus Test (MYZUPE Spray Treatment) To produce a suitable preparation of active compound, 1 part by weight of active compound is mixed with the stated amount of solvent and emulsifier, and the concentrate is diluted with emulsifier-containing water to the desired concentration. Discs of Chinese cabbage (Brassica pekinensis) infected by all stages of the green peach aphid (Myzus persicae) are sprayed with an active compound preparation of the desired concentration. After the desired period of time, the activity in % is determined. 100% means that all of the aphids have been killed; 0% means that none of the aphids have been killed.

Spodoptera frugiperda = Spodoptera frugiperda test (SPODFR spray treatment); details: application rate 500 g/ha, after 7 days, corn leaf discs
Description: Spodoptera Frugiperda Test (SPODFR Spray Treatment) [table] To produce a suitable preparation of active compound, 1 part by weight of active compound is mixed with the stated amount of solvent and emulsifier, and the concentrate is diluted with emulsifier-containing water to the desired concentration. Discs of corn leaves (Zea mays) are sprayed with an active compound preparation of the desired concentration and, after drying, populated with caterpillars of the armyworm (Spodoptera frugiperda). After 7 days, the effect in % is determined. 100% means that all caterpillars have been killed; 0% means that none of the caterpillars have been killed. Spodoptera Frugiperda Test (SPODFR Spray Treatment) To produce a suitable preparation of active compound, 1 part by weight of active compound is mixed with the stated amount of solvent and emulsifier, and the concentrate is diluted with emulsifier-containing water to the desired concentration. Discs of corn leaves (Zea mays) are sprayed with an active compound preparation of the desired concentration and, after drying, populated with caterpillars of the armyworm (Spodoptera frugiperda). After the desired period of time, the activity in % is determined. 100% means that all caterpillars have been killed; 0% means that none of the caterpillars have been killed.

Nilaparvata lugens = Nilaparvata lugens test (NILALU hydroponic treatment); details: 20 ppm, after 7 days
Description: Nilaparvata Lugens Test ([…] Hydroponic Treatment) To produce a suitable preparation of active compound, 1 part by weight of active compound is mixed with the stated amount of solvent and emulsifier, and the concentrate is diluted with emulsifier-containing water to the desired concentration. The active compound preparation is pipetted into water. The stated concentration refers to the amount of active compound per volume unit of water (mg/l=ppm), the sample is then infected with the brown planthopper (Nilaparvata lugens). After 7 days, the effect in % is determined 100% means that all of the planthoppers have been killed; 0% means that none of the planthoppers have been killed.

SMILES | inhibition at 20 g/ha (Alopecurus myosuroides) | inhibition at 20 ppm (Myzus persicae [1]) | inhibition at 20 g/ha (Echinocloa crus-galli) | inhibition at 20 g/ha (Digitaria sanguinalis) | inhibition at 20 g/ha (Setaria viridis) | inhibition at 20 ppm (Myzus persicae [2]) | effect in % (beetle larvae killed) (Phaedon cochleariae) | nematicidal effect in % (formation of galls) (Meloidogyne incognita) | effect in % (aphids killed) (Myzus persicae [3]) | effect in % (caterpillars killed) (Spodoptera frugiperda) | effect in % (planthoppers killed) (Nilaparvata lugens)
CCOC(=O)OC1=C(c2c(C)cc(I)cc2CC)C(=O)NC12CCC(OC)CC2 (stereo not shown) [I-1-c-1 known from WO 06/029799] | 30% | 50% | 30% | 30% | 20% | 60% |  |  |  |  | 
COc1cc(C)cc(C)c1C1=C(OC(=O)C(C)(C)C)NC2(CCC(OC)CC2)C1=O (stereo not shown) [I-a-2] |  |  |  |  |  |  | 100% | 100% | 100% | 100% | 
CCc1cc(C)cc(Br)c1C1=C(OC(=O)C(C)(C)C)NC(C)(C)C1=O [I-a-13] |  |  |  |  |  |  | 83% |  | 80% |  | 100%
